Experimental data from article PMC9228592, “Dichloroacetyl Amides of 3,5-Bis(benzylidene)-4-piperidones Displaying Greater Toxicity to Neoplasms than to Non-Malignant Cells” (Medicines, 2022).

Tests used:
Type in all cases: cell-based, human
HGF, HPLF, and HPC cells = assay: Average cytotoxicity over the three non-malignant cells
Excerpt: (§1) The target cells used in our study were human oral squamous cell carcinoma cell lines Ca9-22 (purchased from RIKEN Cell Bank, Tukuba, RCB-1976), HSC-2 (RCB1945), HSC-3 (RCB1975), HSC-4 (RCB1902), and three human normal oral cells, gingival fibroblast (HGF), periodontal ligament fibroblast (HPLF), and pulp cells (HPC) [established from the first premolar extracted tooth in the lower jaw (because of dysfunctional position or orthodontic treatment) and periodontal tissues of a child, according to the guideline of the Institutional Board of Meikai University Ethics Committee (No. A0808)], after obtaining informed consent from the patients. These cells were incubated for 48 h with the indicated concentrations of test samples or reference compounds sodium dichloroacetate (purchased from Sigma-Aldrich Chemical Company, Saint Louis, MO, USA), 5-fluorouracil (5-FU) from Kyowa (Tokyo, Japan), and doxorubicin (DXR) (St. Louis, MO, USA) and vehicle (DMSO) (0.008, 0.016, 0.031, 0.063, 0.125, 0.25, 0.5, and 1%) in Dulbecco’s Modified Eagle Medium (DMEM) media, which was supplemented with 10% heat-inactivated fetal bovine serum. Cell viability was determined by the MTT method. Cytotoxicity caused by the vehicle (DMSO) was subtracted.

[1] = test system: gingival fibroblast (HGF); assay: Cytotoxicity (MTT, 48 h) against HGF non-malignant cells; settings: mean ± S.D. of triplicate
Excerpt: as §1

[2] = test system: HSC-2 squamous cell carcinoma cells; assay: Cytotoxicity (MTT, 48 h) against HSC-2 cells; settings: for CC50: 48 h, MTT, mean ± S.D. of triplicate; for SI (HSC-2): average CC50 towards HGF, HPLF, HPC divided by CC50 against HSC-2
Excerpt: as §1
(§2) SI was calculated by dividing the average CC50 value (concentration of the compound to kill 50% of the cells) of the compound towards HGF, HPLF, and HPC cells by the CC50 value of the compound against a specific neoplastic cell line.

[3] = test system: Ca9-22, HSC-2, HSC-3, and HSC-4 cells; assay: Average cytotoxicity, selectivity and PSE over the four carcinoma lines; settings: for Average SI: average of SI over Ca9-22, HSC-2, HSC-3, HSC-4
Excerpt: as §1, §2
PSE reflects both the potencies and differences in cytotoxicity to neoplasms and non-malignant cells. This value was the product of the reciprocal of the average CC50 value of the compounds towards Ca9-22, HSC-2, HSC-3, and HSC-4 cells and the average SI value × 100.

pulp cells (HPC) = assay: Cytotoxicity (MTT, 48 h) against HPC non-malignant cells; settings: mean ± S.D. of triplicate
Excerpt: as §1

[4] = test system: Ca9-22 squamous cell carcinoma cells; assay: Cytotoxicity (MTT, 48 h) against Ca9-22 cells; settings: for CC50: 48 h, MTT, mean ± S.D. of triplicate; for SI (Ca9-22): average CC50 towards HGF, HPLF, HPC divided by CC50 against Ca9-22
Excerpt: as §1, §2

[5] = test system: HSC-3 squamous cell carcinoma cells; assay: Cytotoxicity (MTT, 48 h) against HSC-3 cells; settings: for CC50: 48 h, MTT, mean ± S.D. of triplicate; for SI (HSC-3): average CC50 towards HGF, HPLF, HPC divided by CC50 against HSC-3
Excerpt: as §1, §2

[6] = test system: HSC-4 squamous cell carcinoma cells; assay: Cytotoxicity (MTT, 48 h) against HSC-4 cells; settings: for CC50: 48 h, MTT, mean ± S.D. of triplicate; for SI (HSC-4): average CC50 towards HGF, HPLF, HPC divided by CC50 against HSC-4
Excerpt: as §1, §2

[7] = test system: periodontal ligament fibroblast (HPLF); assay: Cytotoxicity (MTT, 48 h) against HPLF non-malignant cells; settings: mean ± S.D. of triplicate
Excerpt: as §1

[8] = average over Ca9-22, HSC-2, HSC-3, HSC-4

| Structure (SMILES) | CC50 (HGF, HPLF, and HPC cells) [µM] | CC50 Average (non-malignant cells) (HGF, HPLF, and HPC cells) | CC50 [1] [µM] | CC50 [2] [µM] | SI (HSC-2) [2] | Average SI [3] | CC50 [3, 8] [µM] | CC50 (pulp cells (HPC)) [µM] | CC50 [4] [µM] | SI (Ca9-22) [4] | CC50 [5] [µM] | SI (HSC-3) [5] | CC50 [6] [µM] | SI (HSC-4) [6] | CC50 [7] [µM] | Average CC50 [3, 8] |
| --- | --- | --- | --- | --- | --- | --- | --- | --- | --- | --- | --- | --- | --- | --- | --- | --- |
| CN(C)c1ccc(C=C2CN(C(=O)C(Cl)Cl)CC(=Cc3ccc(N(C)C)cc3)C2=O)cc1 [Compound 1l] | 140 | very low toxicity | 111 ± 27 | 14.9 ± 4.4 | 9.40 | 7.48 | 23.4 | 122 ± 69 | 13.6 ± 2.7 | 10.3 | 45.5 ± 7.6 | 3.08 | 19.6 ± 6.3 | 7.14 | 188 ± 21 | – |
| COc1cc(/C=C2\CN(C(=O)C(Cl)Cl)C/C(=C\c3cc(OC)c(OC)c(OC)c3)C2=O)cc(OC)c1OC [Compound 1h] | 8.58 | – | 4.7 ± 1.6 | 0.14 ± 0.01 | – | 22.0 | 0.8 | 4 ± 0.6 | 0.72 ± 0.15 | 11.9 | 1.37 ± 0.22 | 6.26 | 0.99 ± 0.39 | 8.67 | 17 ± 5.1 | – |
| Cc1ccc(C=C2CN(C(=O)C(Cl)Cl)CC(=Cc3ccc(C)cc3)C2=O)cc1 [Compound 1j] | 4.82 | – | 5.53 ± 0.31 | 0.26 ± 0.01 | 18.5 | 18.0 | 0.33 | 3.93 ± 0.65 | 0.15 ± 0.03 | 32.1 | 0.46 ± 0.04 | 10.5 | 0.45 ± 0.04 | 10.7 | 5 ± 0.1 | – |
| O=C1C(=Cc2ccc(F)c(F)c2)CN(C(=O)C(Cl)Cl)CC1=Cc1ccc(F)c(F)c1 [Compound 1c] | 1.8 | – | 2.21 ± 0.11 | 0.2 ± 0.02 | 9.00 | 10.8 | 0.21 | 1.28 ± 0.37 | 0.09 ± 0.02 | 20.0 | 0.35 ± 0.02 | 5.14 | 0.2 ± 0.01 | 9.00 | 1.91 ± 0.08 | – |
| O=C1C(=Cc2ccc(F)cc2)CN(C(=O)C(Cl)Cl)CC1=Cc1ccc(F)cc1 [Compound 1b] | 2.18 | – | 2.97 ± 0.46 | 0.25 ± 0.02 | 8.72 | 10.0 | 0.28 | 1.3 ± 0.16 | 0.11 ± 0.01 | 19.8 | 0.44 ± 0.02 | 4.96 | 0.33 ± 0.07 | 6.61 | 2.26 ± 0.11 | – |
| O=C([O-])C(Cl)Cl.[Na+] [SDA, sodium dichloroacetate, reference compound] | > 200 | – | > 200 | > 200 | – | – | > 200 | > 200 | > 200 | – | > 200 | – | > 200 | – | > 200 | little or no efficacy |
| O=C1/C(=C/c2ccc3c(c2)OCO3)CN(C(=O)C(Cl)Cl)C/C1=C\c1ccc2c(c1)OCO2 [Compound 1i] | 4.27 | – | 5.67 ± 0.31 | 0.36 ± 0.01 | 11.9 | 12.3 | 0.48 | 2.78 ± 0.14 | 0.17 ± 0.06 | 25.1 | 0.74 ± 0.13 | 5.77 | 0.65 ± 0.17 | 6.57 | 4.37 ± 0.85 | – |
| COc1ccc(/C=C2\CN(C(=O)C(Cl)Cl)C/C(=C\c3ccc(OC)cc3)C2=O)cc1 [Compound 1f] | 5.99 | – | 9.03 ± 0.76 | 0.52 ± 0.07 | 11.5 | 9.41 | 0.79 | 3.62 ± 0.07 | 0.39 ± 0.02 | 15.4 | 1 ± 0.16 | 5.99 | 1.26 ± 0.27 | 4.75 | 5.33 ± 0.32 | – |
